Reference: patent publication US8900720B2, “Multi-functional wood preservatives based on a borate/fatty acid combination” (Summerdale, Inc, priority 2010, dated 2014)

Tested on: mold fungi
Experiment: Moldicide assay on treated southern yellow pine stakes (ASTM D4445-91, ASTM D3273-00)
Assay type: cell-based
Conditions: dip-treated stakes, relative to the water control
Experimental: All moldicide assays were conducted via ASTM standard D4445-91 (1998) and ASTM D3273-00 (1986).
Six groups of southern yellow pine stakes (12 replicates) were dip-treated (30 seconds) with treatments 3-1 through 3-6, inoculated with mold spores, incubated, and examined after 12 weeks (Table 3).
Six groups of southern yellow pine stakes (12 replicates) were dip-treated (30 seconds) with treatments 4-1 through 4-6, inoculated with mold spores, incubated, and examined after 12 weeks.

Structure (SMILES) | moldicide activity (in words)
OB(O)O [Boric acid, boric acid] | no moldicide activity
O.O.O.O.O=BOB1OB(OB=O)OB2OB([O-])OB([O-])OB(O1)O2.[Na+].[Na+] [DOT, disodium octaborate tetrahydrate] | no moldicide activity
